Values of other authors, collected in patent publication US9428458B2, “Substituted pyridoxine-lactam carboxylate-salts” (ALCOBRA LTD., priority 2008, dated 2016).

Conditions: ca. 900 mg daily dose administered intravenously

Q: With “pyridoxine L-2-pyrrolidone-5-carboxylate [metadoxine]” as the substance, how does the “side effects associated with the use of metadoxine” value read?
A: nausea and vomiting
